Measurements published in publication PMC3710586 (NeuroImage, 2010).
Several values for one entry are separate records, joined by “and”; a condition that tells them apart may be missing. Equal entries are not always repeated. Entries after “also recorded” stand apart in the source; their conditions may differ. Where two headings read alike, the source gives them in different places.

Assays:
ATX plasma levels = format: in vivo, rhesus monkey
[1] = rats; ref Mattiuz et al., 2003; Kielbasa et al., 2009; cited from earlier work
[2] = dogs; ref Mattiuz et al., 2003; cited from earlier work
[3] = humans; ref Sauer et al., 2003; cited from earlier work
[4] = tested on: norepinephrine transporters (NET); conditions: rhesus monkeys, cited from earlier work
[5] = tested on: norepinephrine transporters (NET); conditions: humans, cited from earlier work
[6] = humans, ref Logan et al., 2007, cited from earlier work
[7] = target: norepinephrine transporters (NET) (Macaca mulatta, UniProt Q9MYW8)
[8] = target: norepinephrine transporters (Homo sapiens, UniProt P23975); conditions: read-out: MRB dissociation constant Kd, in vitro; ref Melloni et al., 1984; cited from earlier work
[9] = [11C]MRB arterial input function and plasma metabolite analysis; format: in vivo, rhesus monkey; conditions: for Fraction of unmetabolized [11C]MRB in plasma: n=10
[10] = [11C]MRB plasma free fraction by ultrafiltration; format: in vitro ADME, rhesus monkey
[11] = tested on: norepinephrine transporters (NET); conditions: for Global VND/fP estimate (four NET-rich regions): Eq. 5, shared across regions, rSE 22%
[12] = rhesus monkey, read-out: Percentage of occupancy of NET by ATX
[13] = after 40 mg of methylphenidate, n=9, ref Hannestad et al., 2010
[14] = ATX low dose, Day 2, MA1, one row per monkey
[15] = ATX medium dose, Day 1, MA1, one row per monkey
[16] = Baseline, Day 1, MA1, one row per monkey

Chain of norepinephrine transporters (NET) (Macaca mulatta, UniProt Q9MYW8) (Q9MYW8 1-617): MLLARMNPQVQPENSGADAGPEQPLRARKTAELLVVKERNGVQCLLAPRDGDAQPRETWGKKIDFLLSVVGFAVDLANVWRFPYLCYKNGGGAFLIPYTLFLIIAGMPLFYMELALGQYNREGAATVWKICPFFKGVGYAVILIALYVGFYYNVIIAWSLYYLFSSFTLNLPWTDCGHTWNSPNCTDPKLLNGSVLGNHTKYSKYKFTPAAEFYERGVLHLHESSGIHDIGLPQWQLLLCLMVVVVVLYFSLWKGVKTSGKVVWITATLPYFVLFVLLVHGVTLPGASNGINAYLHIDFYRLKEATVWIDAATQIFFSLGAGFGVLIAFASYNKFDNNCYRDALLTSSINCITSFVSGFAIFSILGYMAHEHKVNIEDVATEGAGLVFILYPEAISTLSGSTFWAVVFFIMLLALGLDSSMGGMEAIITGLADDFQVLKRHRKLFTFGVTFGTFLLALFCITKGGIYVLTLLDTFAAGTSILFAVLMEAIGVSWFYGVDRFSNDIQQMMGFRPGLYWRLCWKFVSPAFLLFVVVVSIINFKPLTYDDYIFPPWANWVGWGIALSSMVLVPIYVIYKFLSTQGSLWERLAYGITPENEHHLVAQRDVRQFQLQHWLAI
Chain of norepinephrine transporters (P23975 whole entry): as the sequence (Q9MYW8 1-617) above, with S15N, A19T, V246I, I410V, I427V, G452S, V606I counted along it

## CNCC[C@@H](Oc1ccccc1C)c1ccccc1 [ATX, atomoxetine]
ATX plasma levels; mono-exponential fit of 0-, 60-, 120-min samples
  Percent change per hour of ATX plasma level during the PET scan: −1±6 %/h
ATX plasma levels; r^2=0.902, n=7, intercept set to zero
  Slope of regression of ATX plasma level versus maintenance infusion rate: 1.04 kg·h/L and 1.042 kg·h/L
[1]
  Plasma free fraction of ATX: 11–13%
[2]
  Plasma free fraction of ATX: 3%
[3]
  Plasma free fraction of ATX: 1.3%
[4]; plasma, ref Takano et al., 2009a
  ATX IC50 in occupancy study using [18F]F-MeNER-D2: 0.016 µg/mL
[5]; after 100 mg of ATX, ref Logan et al., 2007
  Reduction of [11C]MRB average VT in the occipital cortex: 10%
[6]; 25 mg oral ATX
  Plasma levels of ATX: 116 ng/mL
[6]; 50 mg oral ATX
  Plasma levels of ATX: 206 ng/mL
[6]; 100 mg oral ATX
  Plasma levels of ATX: 421 ng/mL
[7]; ATX IC50 using BPF, caudate as reference region, plasma concentration, rSE 16%
  IC50: 74.4 nM
[7]; all monkeys, increasing ATX infusion doses
  Effect of ATX on [11C]MRB binding (VT/fP) in NET-rich regions: decreased in a dosedependent manner; also recorded: inhibited in a dose-dependent manner
[7]; monkey 1, high-dose scan
  ATX occupancy estimate (Lassen plot): 86±13%
[7]; monkey 1, low-dose scan
  ATX occupancy estimate (Lassen plot): 31±10%
[7]; monkey 1, medium-dose scan
  ATX occupancy estimate (Lassen plot): 56±7%
[7]; monkey 2 (only medium-dose scan acquired)
  ATX occupancy estimate (Lassen plot): 65±18%
[7]; monkey 3, high-dose scan
  ATX occupancy estimate (Lassen plot): 82±6%
[7]; monkey 3, low-dose scan
  ATX occupancy estimate (Lassen plot): 39±14%
[7]; monkey 3, medium-dose scan
  ATX occupancy estimate (Lassen plot): 63±7%
[7]; rhesus monkey, read-out: ATX ED50, dose
  ED50: 0.13 mg/kg
[7]; [12]
  receptor occupancy at 0.012 µg/mL: 27%
  receptor occupancy at 0.132 µg/mL: 80%

## COc1ccccc1OC(c1ccccc1)C1CNCCO1 (centres unmarked) [MRB]
[8]
  Kd: 2.5 nM

## [2H]C([2H])([18F])Oc1ccccc1O[C@@H](c1ccccc1)[C@H]1CNCCO1 [[^18F]MeNER-D2]
[4]; ref Seneca et al., 2006
  BPND in the thalamus: 0.26±0.06
[4]; ref Takano et al., 2009a,b
  BPND in the thalamus: 0.7±0.1

## COC(=O)C(c1ccccc1)C1CCCCN1 (centres unmarked) [methylphenidate]
[5]; [13]
  Reduction of [11C]MRB VT in the occipital cortex: 9±17%
  Reduction of [11C]MRB VT/fP in the occipital cortex: 5±15%

## [11CH3]Oc1ccccc1O[C@@H](c1ccccc1)[C@@H]1CNCCO1 [[^11C]MRB, (S,S)-[^11C]methylreboxetine]
[9]; 20 min post-injection
  Fraction of unmetabolized [11C]MRB in plasma: 42±8%
[9]; 90 min post-injection
  Fraction of unmetabolized [11C]MRB in plasma: 25±4%
[9]; throughout the scans
  Whole blood to plasma radioactivity concentration ratio: 0.94±0.13
[10]
  Change of plasma free fraction fP from first to second scan of the day: +17%±10
[10]; monkey #1
  Day-to-day variability of plasma free fraction fP: −16%
[10]; monkey #3
  Day-to-day variability of plasma free fraction fP: −68%
[11]; [14]
  Distribution Volume VT, Caudate: 6.2 mL/cm^3 and 2.1 mL/cm^3
  Distribution Volume VT, Midbrain: 9.0 mL/cm^3 and 3.0 mL/cm^3
  Distribution Volume VT, Putamen: 2.4 mL/cm^3 and 6.8 mL/cm^3
[11]; [15]
  Distribution Volume VT, Anterior Cingulate: 11.0 mL/cm^3 and 8.7 mL/cm^3 and 8.3 mL/cm^3
  Distribution Volume VT, Brainstem: 11.5 mL/cm^3 and 7.3 mL/cm^3 and 8.2 mL/cm^3
  Distribution Volume VT, Caudate: 8.7 mL/cm^3 and 6.5 mL/cm^3 and 6.3 mL/cm^3
  Distribution Volume VT, Midbrain: 10.1 mL/cm^3 and 7.5 mL/cm^3 and 7.8 mL/cm^3
  Distribution Volume VT, Occipital: 8.2 mL/cm^3 and 6.4 mL/cm^3 and 5.6 mL/cm^3
  Distribution Volume VT, Putamen: 7.2 mL/cm^3 and 9.9 mL/cm^3 and 8.7 mL/cm^3
  Distribution Volume VT, Thalamus: 11.6 mL/cm^3 and 8.2 mL/cm^3 and 8.5 mL/cm^3
[11]; [16]
  Distribution Volume VT, Anterior Cingulate: 13.3 mL/cm^3 and 10.1 mL/cm^3 and 10.9 mL/cm^3
  Distribution Volume VT, Brainstem: 16.3 mL/cm^3 and 10.2 mL/cm^3 and 11.1 mL/cm^3
  Distribution Volume VT, Midbrain: 13.3 mL/cm^3 and 10.5 mL/cm^3 and 9.4 mL/cm^3
  Distribution Volume VT, Occipital: 8.4 mL/cm^3 and 6.6 mL/cm^3 and 6.4 mL/cm^3
  Distribution Volume VT, Putamen: 6.3 mL/cm^3 and 8.9 mL/cm^3 and 6.6 mL/cm^3
  Distribution Volume VT, Thalamus: 15.5 mL/cm^3 and 10.7 mL/cm^3 and 12.7 mL/cm^3
[11]; Baseline, Day 1, MA1 t*=30 min, one row per monkey #1-#3
  Distribution Volume VT, Caudate: 7.7 mL/cm^3 and 6.5 mL/cm^3 and 5.9 mL/cm^3
[11]; Bmax/Kd set to zero
  VND/fP in the putamen: 30 mL/cm^3
[11]
  Global VND/fP estimate (four NET-rich regions): 19±4 mL/cm^3
[11]; listed as [^11C] MRB
  Global VND/fP estimate (four NET-rich regions): 19 mL/cm^3
[11]; Eq. 5, rSE 15%
  VND/fP estimate (four high binding regions plus occipital cortex): 19± 3 mL/cm^3
[11]; baseline VT/fP divided by global VND/fP, minus one, n=3
  Binding potential BPND in the thalamus: 1.8±0.3
[11]; computed from in vitro Kd 2.5 nM, NET density 23–72 nM and fND
  Expected value of BPND in the thalamus: 0.46–1.44
[11]; fND=fP/VND, from VND/fP 19 mL/cm^3
  Tissue free fraction fND: ~5%
[11]; n=2, unit not given
  VT/fP after blockade by the highest dose of ATX, anterior cingulate cortex: 24±3
  VT/fP after blockade by the highest dose of ATX, brainstem: 24±1
  VT/fP after blockade by the highest dose of ATX, midbrain: 23±1
  VT/fP after blockade by the highest dose of ATX, thalamus: 26±3
[11]; n=3
  Normalized distribution volume VT/fP at baseline, caudate nucleus: 28±3 mL/cm^3
  Normalized distribution volume VT/fP at baseline, occipital cortex: 30±2 mL/cm^3
  Normalized distribution volume VT/fP at baseline, putamen: 30±2 mL/cm^3
[11]; or a higher non-specific binding
  Specific binding in the NET-poor regions (caudate, putamen and occipital): ≤ 30%
